From US9376391B2, “Difluoromethyl-nicotinic-tetrahydronaphthyl carboxamides as fungicides” (BAYER CROPSCIENCE AKTIENGESELLSCHAFT, priority 2012, dated 2016)

Experiments:
Puccinia recondita = test: In vivo preventive test on Puccinia recondita (brown rust on wheat); details: wheat, spray, graded 12 days after contamination vs control plants
How it was run: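 Wheat seedlings ("Scipion") sprayed with compound at the 1-leaf stage, inoculated 24 h later with Puccinia recondita spores (100 000 spores per ml). Incubated 24 h at 20° C and 100% RH, then 10 days at 20° C and 70-80% RH. Efficacy (%) versus solvent-treated controls graded 12 days after contamination.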

[1] = log P by HPLC on reversed phase columns (EEC directive 79/831 Annex V.A8); type: physicochemical; details: Table 1, formula (I); HPLC/LC-MS at pH 2.7, 0.1% formic acid in water / acetonitrile, gradient 10% to 95%
Alternaria brassicae = test: In vivo preventive test on Alternaria brassicae (leaf spot on radish); details: spray, graded 6 days after contamination vs control plants
Experimental: In Vivo Preventive Test on Alternaria brassicae (Leaf Spot on Radish)
(§1) The active ingredients tested are prepared by homogenization in a mixture of acetone/tween/DMSO, and then diluted with water to obtain the desired active material concentration.
Radish plants (“Pernod Clair” variety), sown in starter cups on a 50/50 peat soil-pozzolana substrate and grown at 17° C., are treated at the cotyledon stage by spraying with the active ingredient prepared as described above. Plants, used as controls, are treated with the mixture of acetone/tween/DMSO/water not containing the active material.
After 24 hours, the plants are contaminated by spraying the cotyledons with an aqueous suspension of Alternaria brassicae spores (50 000 spores per ml). The spores are collected from a 15-day-old culture. The contaminated radish plants are incubated at 20° C. and at 100% relative humidity.
Grading (% of efficacy) is carried out 6 days after the contamination, in comparison with the control plants.

Sphaerotheca fuliginea = test: In vivo preventive test on Sphaerotheca fuliginea (powdery mildew on cucurbits); details: preventive spray, gherkin plants, grading 12 days after contamination
Experimental: In Vivo Preventive Test on Sphaerotheca fuliginea (Powdery Mildew on Cucurbits)
(§2) The active ingredients tested are prepared by homogenization in a mixture of acetone/tween/DMSO and then diluted with water to obtain the desired active material concentration.
(§3) Gherkin plants (“Vert petit de Paris” variety), sown in starter cups on a 50/50 peat soil-pozzolana substrate and grown at 24° C., are treated at the Z11 cotyledon stage by spraying with the active ingredient prepared as described above. Plants, used as controls, are treated with the mixture of acetone/tween/DMSO/water not containing the active material.
After 24 hours, the plants are contaminated by spraying the cotyledons with an aqueous suspension of Sphaerotheca fuliginea spores (100 000 spores per ml). The spores are collected from infected plants. The contaminated gherkin plants are incubated at about 20° C. and at 70-80% relative humidity.
Grading (% of efficacy) is carried out 12 days after the contamination, in comparison with the control plants.

Botrytis cinerea = test: In vivo preventive test on Botrytis cinerea (grey mould), gherkin plants; details: gherkin, spray, graded 4 to 5 days after contamination vs control plants
Experimental: In Vivo Preventive Test on Botrytis cinerea (Grey Mould)
as §2, §3
After 24 hours, the plants are contaminated by spraying the cotyledons with an aqueous suspension of cryopreserved Botrytis cinerea spores (50 000 spores per ml). The spores are suspended in a nutrient solution composed of 10 g/L of PDB, 50 g/L of D-Fructose, 2 g/L of NH4NO3 and 1 g/L of KH2PO4. The contaminated gherkin plants are incubated at 17° C. and at 90% relative humidity.
Grading (% of efficacy) is carried out 4 to 5 days after the contamination, in comparison with the control plants.

Uromyces appendiculatus = test: In vivo preventive test on Uromyces appendiculatus (bean rust); details: preventive spray, bean plants, grading 11 days after contamination
How it was run: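 'Saxa' bean plants at the 2-leaf stage were sprayed with compound and inoculated 24 h later with U. appendiculatus spores (150 000 spores per ml). Plants were incubated 24 h at 20 °C and 100% RH, then 10 days at 20 °C and 70–80% RH. Percent efficacy versus solvent-treated controls was graded 11 days post-inoculation.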

Phakopsora pachyrhizi = test: Phakopsora test (soybeans)/preventive; type: in vivo; details: evaluated 7 days after inoculation
Experimental: Phakopsora Test (Soybeans)/Preventive
To produce a suitable preparation of active compound, 1 part by weight of active compound is mixed with the stated amounts of solvent and emulsifier, and the concentrate is diluted with water to the desired concentration.
To test for preventive activity, young plants are sprayed with the preparation of active compound at the stated rate of application. After the spray coating has dried on, the plants are inoculated with an aqueous spore suspension of the causal agent of soybean rust (Phakopsora pachyrhizi) and stay for 24 h without light in an incubation cabinet at approximately 24° C. and a relative atmospheric humidity of 95%.
The plants remain in the incubation cabinet at approximately 24° C. and a relative atmospheric humidity of approximately 80% and a day/night interval of 12 h.
The test is evaluated 7 days after the inoculation. 0% means an efficacy which corresponds to that of the untreated control, while an efficacy of 100% means that no disease is observed.

Septoria tritici = test: In vivo preventive test on Septoria tritici (leaf spot on wheat); details: preventive spray, wheat plants, grading 24 days after contamination
Experimental: In Vivo Preventive Test on Septoria tritici (Leaf Spot on Wheat)
as §1
Wheat plants (“Scipion” variety), sown in starter cups on a 50/50 peat soil-pozzolana substrate and grown at 22° C., are treated at the 1-leaf stage (10 cm height) by spraying with the active ingredient prepared as described above. Plants, used as controls, are treated with the mixture of acetone/tween/DMSO/water not containing the active material.
After 24 hours, the plants are contaminated by spraying the leaves with an aqueous suspension of cryopreserved Septoria tritici spores (500 000 spores per ml). The contaminated wheat plants are incubated for 72 hours at 18° C. and at 100% relative humidity, and then for 21 days at 90% relative humidity.
Grading (% of efficacy) is carried out 24 days after the contamination, in comparison with the control plants.

Pyrenophora teres = test: In vivo preventive test on Pyrenophora teres (net blotch on barley); details: barley, spray, graded 14 days after contamination vs control plants
Experimental: In Vivo Preventive Test on Pyrenophora teres (Net Blotch on Barley)
as §1
Barley plants (“Plaisant” variety), sown in starter cups on a 50/50 peat soil-pozzolana substrate and grown at 22° C., are treated at the 1-leaf stage (10 cm height) by spraying with the active ingredient prepared as described above. Plants, used as controls, are treated with the mixture of acetone/tween/DMSO/water not containing the active material.
After 24 hours, the plants are contaminated by spraying the leaves with an aqueous suspension of Pyrenophora teres spores (12 000 spores per ml). The spores are collected from a 12-day-old culture. The contaminated barley plants are incubated for 48 hours at 20° C. and at 100% relative humidity, and then for 12 days at 20° C. at 70-80% relative humidity.
Grading (% of efficacy) is carried out 14 days after the contamination, in comparison with the control plants. plants.

CCC1(C)CC(C)c2c(NC(=O)c3cccnc3C(F)F)cccc21 (mixture of isomers) [Example 81]
Eff. % (Puccinia recondita; dose 100 ppm): 100% | logP^[a] [1]: 3.64^[a] | Eff. % (Alternaria brassicae; dose 100 ppm): 70% | Eff. % (Sphaerotheca fuliginea; 100 ppm): 94% | Eff. % (Botrytis cinerea; dose 100 ppm): 100% | Eff. % (Uromyces appendiculatus; 100 ppm): 99% | Eff. % (Phakopsora pachyrhizi; 10 ppm of active ingredient): 100%

CC1CC(C)(C)c2cccc(NC(=S)c3cccnc3C(F)F)c21 (racemic) [Example 9]
Eff. % (Puccinia recondita; dose 500 ppm): 100% | logP^[a] [1]: 3.74^[a] | Eff. % (Septoria tritici; 500 ppm): 98% | Eff. % (Sphaerotheca fuliginea; 500 ppm): 100% | Eff. % (Pyrenophora teres; dose 500 ppm): 86% | Eff. % (Uromyces appendiculatus; 500 ppm): 100% | Eff. % (Phakopsora pachyrhizi; 100 ppm of active ingredient): 99%

CCC1Cc2c(NC(=O)c3cccnc3C(F)F)cccc2C1(C)C (racemic) [Example 37]
Eff. % (Puccinia recondita; dose 500 ppm): 100% | logP^[a] [1]: 3.78^[a] | Eff. % (Septoria tritici; 500 ppm): 97% | Eff. % (Alternaria brassicae; dose 500 ppm): 96% | Eff. % (Sphaerotheca fuliginea; 500 ppm): 100% | Eff. % (Uromyces appendiculatus; 500 ppm): 100% | Eff. % (Phakopsora pachyrhizi; 10 ppm of active ingredient): 95%

CC(C)C1Cc2c(NC(=O)c3cccnc3C(F)F)cccc2C1(C)C (racemic) [Example 43]
Eff. % (Puccinia recondita; dose 500 ppm): 98% | logP^[a] [1]: 4.11^[a] | Eff. % (Septoria tritici; 500 ppm): 86% | Eff. % (Alternaria brassicae; dose 500 ppm): 100% | Eff. % (Sphaerotheca fuliginea; 500 ppm): 100% | Eff. % (Uromyces appendiculatus; 500 ppm): 100% | Eff. % (Phakopsora pachyrhizi; 10 ppm of active ingredient): 98%

CCC1OC(CC)(CC)c2cccc(NC(=O)c3cccnc3C(F)F)c21 (racemic) [Example 71]
Eff. % (Puccinia recondita; dose 100 ppm): 98% | logP^[a] [1]: 3.23^[a] | Eff. % (Alternaria brassicae; dose 100 ppm): 88% | Eff. % (Sphaerotheca fuliginea; 100 ppm): 100% | Eff. % (Pyrenophora teres; dose 100 ppm): 92% | Eff. % (Uromyces appendiculatus; 100 ppm): 100% | Eff. % (Phakopsora pachyrhizi; 10 ppm of active ingredient): 94%

CC(C)C1OC(C)(C)c2cccc(NC(=O)c3cccnc3C(F)F)c21 (racemic) [Example 76]
Eff. % (Puccinia recondita; dose 100 ppm): 94% | logP^[a] [1]: 2.73^[a] | Eff. % (Septoria tritici; 100 ppm): 97% | Eff. % (Alternaria brassicae; dose 100 ppm): 75% | Eff. % (Sphaerotheca fuliginea; 100 ppm): 98% | Eff. % (Botrytis cinerea; dose 100 ppm): 98% | Eff. % (Pyrenophora teres; dose 100 ppm): 92% | Eff. % (Uromyces appendiculatus; 100 ppm): 96%

CC1CC(C(C)C)c2cccc(NC(=O)c3cccnc3C(F)F)c21 (stereo not shown) [Example 3]
Eff. % (Puccinia recondita; dose 500 ppm): 97% | logP^[a] [1]: 3.65^[a] | Eff. % (Septoria tritici; 500 ppm): 90% | Eff. % (Alternaria brassicae; dose 500 ppm): 86% | Eff. % (Sphaerotheca fuliginea; 500 ppm): 95% | Eff. % (Pyrenophora teres; dose 500 ppm): 83% | Eff. % (Uromyces appendiculatus; 500 ppm): 100% | Eff. % (Phakopsora pachyrhizi; 100 ppm of active ingredient): 100%

CC1CC(C)(C)c2cccc(NC(=O)c3cccnc3C(F)F)c21 (stereo not shown) [Example 13]
Eff. % (Puccinia recondita; dose 500 ppm): 100% | logP^[a] [1]: 3.25^[a] | Eff. % (Septoria tritici; 500 ppm): 83% | Eff. % (Alternaria brassicae; dose 500 ppm): 93% | Eff. % (Sphaerotheca fuliginea; 500 ppm): 100% | Eff. % (Pyrenophora teres; dose 500 ppm): 100% | Eff. % (Uromyces appendiculatus; 500 ppm): 100% | Eff. % (Phakopsora pachyrhizi; 100 ppm of active ingredient): 99%

CC1Cc2c(NC(=O)c3cccnc3C(F)F)cccc2C1(C)C (stereo not shown) [Example 14]
Eff. % (Puccinia recondita; dose 500 ppm): 100% | logP^[a] [1]: 3.33^[a] | Eff. % (Septoria tritici; 500 ppm): 97% | Eff. % (Sphaerotheca fuliginea; 500 ppm): 98% | Eff. % (Pyrenophora teres; dose 500 ppm): 92% | Eff. % (Uromyces appendiculatus; 500 ppm): 100% | Eff. % (Phakopsora pachyrhizi; 10 ppm of active ingredient): 100%

CC1CC(CC(C)(C)C)c2cccc(NC(=O)c3cccnc3C(F)F)c21 (stereo not shown) [Example 46]
Eff. % (Puccinia recondita; dose 500 ppm): 98% | logP^[a] [1]: 4.39^[a] | Eff. % (Septoria tritici; 500 ppm): 71% | Eff. % (Alternaria brassicae; dose 500 ppm): 98% | Eff. % (Sphaerotheca fuliginea; 500 ppm): 100% | Eff. % (Botrytis cinerea; dose 500 ppm): 83% | Eff. % (Uromyces appendiculatus; 500 ppm): 100% | Eff. % (Phakopsora pachyrhizi; 10 ppm of active ingredient): 90%

CC(C)CC1CC(C)c2c(NC(=O)c3cccnc3C(F)F)cccc21 (stereo not shown) [Example 57]
Eff. % (Puccinia recondita; dose 500 ppm): 98% | logP^[a] [1]: 4.15^[a] | Eff. % (Alternaria brassicae; dose 500 ppm): 97% | Eff. % (Sphaerotheca fuliginea; 500 ppm): 98% | Eff. % (Pyrenophora teres; dose 500 ppm): 97% | Eff. % (Uromyces appendiculatus; 500 ppm): 100% | Eff. % (Phakopsora pachyrhizi; 10 ppm of active ingredient): 93%

CC(C)C1Cc2c(NC(=S)c3cccnc3C(F)F)cccc2C1(C)C (stereo not shown) [Example 65]
Eff. % (Puccinia recondita; dose 100 ppm): 98% | logP^[a] [1]: 4.46^[a] | Eff. % (Septoria tritici; 100 ppm): 80% | Eff. % (Sphaerotheca fuliginea; 100 ppm): 98% | Eff. % (Botrytis cinerea; dose 100 ppm): 100% | Eff. % (Pyrenophora teres; dose 100 ppm): 70% | Eff. % (Uromyces appendiculatus; 100 ppm): 100%

CC(C)CC1CCc2cccc(NC(=O)c3cccnc3C(F)F)c21 (stereo not shown) [Example 84]
Eff. % (Puccinia recondita; dose 100 ppm): 97% | logP^[a] [1]: 3.62^[a] | Eff. % (Septoria tritici; 100 ppm): 100% | Eff. % (Sphaerotheca fuliginea; 100 ppm): 100% | Eff. % (Botrytis cinerea; dose 100 ppm): 99% | Eff. % (Pyrenophora teres; dose 100 ppm): 75% | Eff. % (Uromyces appendiculatus; 100 ppm): 100%

CC(C)(C)CC1CCc2cccc(NC(=O)c3cccnc3C(F)F)c21 (stereo not shown) [Example 90]
Eff. % (Puccinia recondita; dose 100 ppm): 98% | logP^[a] [1]: 3.92^[a] | Eff. % (Septoria tritici; 100 ppm): 96% | Eff. % (Alternaria brassicae; dose 100 ppm): 93% | Eff. % (Sphaerotheca fuliginea; 100 ppm): 100% | Eff. % (Botrytis cinerea; dose 100 ppm): 80% | Eff. % (Pyrenophora teres; dose 100 ppm): 86% | Eff. % (Uromyces appendiculatus; 100 ppm): 100%
